Reference: patent US9327225B2, “Air cleaning filter and method for manufacturing the same” (LG Electronics Inc., priority 2012, dated 2016)

What was measured:
[1] = system: escherichia coli (E. coli); assay: Measurement of minimal inhibitory concentration (MIC), turbidity; assay type: cell-based; conditions: for minimal inhibitory concentration, E. coli: Table 1, 35° C., 14-16 hours; for E. coli MIC value: Table 2; for MIC value of E. coli (wt %): in Table 3
Excerpt: (§1) 1. Measurement of Minimal Inhibitory Concentration (MIC)
(§2) Polyvinylpyrrolidone iodine (hereinafter, abbreviated as “PVPI”), phthalaldehyde (hereinafter, abbreviated as “PA”), potassium disulphite (hereinafter, abbreviated as “PD”) bronopol, norspermidine (hereinafter, abbreviated as “NS), and the ginseng extract were sequentially diluted, respectively, and prepared with various concentrations to prepare MIC measurement specimens. About 10^4-5 cfu/ml of escherichia coli (E. coli) and about 10^4˜5 cfu/ml of staphylococcus aureus (S. aureus) were added to the MIC measurement specimens, respectively. The specimens were cultured at 35° C. for 14-16 hours and then the turbidity was examined, respectively.
(§3) As a comparative example, specimens to which the E. coli and the S. aureus were added to distilled water, respectively, were cultured at the same time, and the minimal inhibitory concentration of the specimens was measured with reference to specimens subsequent to the culture and the turbidity of the comparative example subsequent to the culture.

[2] = system: staphylococcus aureus (S. aureus); assay: as above; assay type: cell-based; conditions: for minimal inhibitory concentration, S. aureus: Table 1, 35° C., 14-16 hours; for S. aureus MIC value: Table 2
Excerpt: as §1, §2, §3

E. coli [3] = assay: Paper disc experiment (clear zone); assay type: cell-based, Escherichia coli; conditions: 24 hours, 35° C.
Procedure: (§4) 10^5 cfu/ml of E. coli and S. aureus were sub-cultured in a Mueller Hinton agar, respectively, and then smeared.
(§5) PVPI, ginseng extract, bronopol, PA, NS and PD were introduced to the paper disc, respectively, and left and dried for 5 to 10 minutes. The dried paper disc was put on a culture medium smeared with the E. coli and S. aureus with a sufficient interval, and cultured for 24 hours in a 35° C. incubator and then the size of clear zone was examined and the result is summarized in the following Table 2.

S. aureus = assay: Paper disc experiment (clear zone); assay type: cell-based, Staphylococcus aureus; conditions: 24 hours, 35° C.
Procedure: as §4, §5

E. coli [4] = assay: Shaking flask method, materials in maintenance medium; assay type: cell-based, Escherichia coli; conditions: 35° C., concentration of each material (wt %)
Procedure: 3. Experiment Using Shaking Flask Method
A maintenance medium produced with 1% of nutrient broth and 0.5% of NaCl and inoculated with about 10^5 cfu/ml of E. coli was prepared. Materials of PVPI, ginseng extract, bronopol, PA and NS were introduced to the medium, respectively, and reacted at 35° C., and the antibiotic effect was examined using a pour plate method after 6 hours and 24 hours had been passed.
The antibiotic effect in the Table 3 was calculated using the following equation.
Me: Cell number of maintenance medium to which each material is added
Mc: Cell number of maintenance medium to which each material is not added

Compound	minimal inhibitory concentration, E. coli [1]	E. coli MIC value [1]	MIC value of E. coli (wt %) [1]	minimal inhibitory concentration, S. aureus [2]	S. aureus MIC value [2]	E. coli clear zone (mm) (E. coli [3])	S. aureus clear zone (mm) (S. aureus)	Antibiotic effect after 6 hours (E. coli [4])	Antibiotic effect after 24 hours (E. coli [4])
O=[N+]([O-])C(Br)(CO)CO [Bronopol, bronopol, reference compound]	Less than 0.0009% weight %	0.156% weight %	0.156% wt %	Less than 0.0009% weight %	0.156% weight %	10 mm	10 mm	99.99%	100%
NCCCNCCCN [NS, norspermidine]	0.312% weight %	0.312% weight %	0.312% wt %	0.078% weight %	0.078% weight %	14 mm	23 mm	99.99%	100%
O=Cc1ccccc1C=O [PA, phthalaldehyde]	0.156% weight %	< 0.0009% weight %	< 0.0009% wt %	0.156% weight %	< 0.0009% weight %	10 mm	11 mm	99.99%	100%
O=S([O-])OS(=O)[O-].[K+].[K+] [PD, potassium disulphite]	0.156% weight %	0.156% weight %		0.078% weight %	0.078% weight %	12 mm	32 mm		
Polyvinylpyrrolidone iodine [PVPI, reference compound]	1.875% weight %	1.875% weight %	1.875% wt %	1.875% weight %	1.875% weight %	12 mm	30 mm	99.99%	100%
